How the values were obtained:
Format in all cases: cell-based
[1] = target: Free fatty acid receptor 1 (Homo sapiens, UniProt O14842); experiment: Agonist activity at N-terminal FLAG tagged human FFAR1 transfected in African green monkey COS-7 cells assessed as accumulation of inositol phosphate incubated for 90 mins by TopCount NXT counter based analysis
[2] = target: T1, Free fatty acid receptor 4 (Homo sapiens, UniProt Q5NUL3); experiment: Agonist activity at N-terminal FLAG tagged human FFAR4 transfected in African green monkey COS-7 cells assessed as accumulation of inositol phosphate incubated for 90 mins by TopCount NXT counter based analysis
T1 sequence (Q5NUL3 whole entry): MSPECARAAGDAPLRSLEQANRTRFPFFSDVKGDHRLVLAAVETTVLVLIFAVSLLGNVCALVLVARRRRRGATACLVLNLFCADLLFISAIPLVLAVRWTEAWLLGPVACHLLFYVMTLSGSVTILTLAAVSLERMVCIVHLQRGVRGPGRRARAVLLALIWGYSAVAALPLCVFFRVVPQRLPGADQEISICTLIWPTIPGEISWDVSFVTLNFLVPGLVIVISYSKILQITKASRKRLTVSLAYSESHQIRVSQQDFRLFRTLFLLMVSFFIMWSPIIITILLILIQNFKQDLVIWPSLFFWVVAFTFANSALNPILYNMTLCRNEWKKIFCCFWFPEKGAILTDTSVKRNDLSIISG

[3] = target: T2, Free fatty acid receptor 4 (Homo sapiens) (UniProt Q5NUL3); experiment: Agonist activity at N-terminal FLAG tagged human FFAR4 transfected in African green monkey COS-7 cells assessed as accumulation of inositol phosphate at 10 uM incubated for 90 mins by TopCount NXT counter based analysis relative to control
T2 sequence (whole entry): T1 sequence (Q5NUL3 whole entry)

Sequence of Free fatty acid receptor 1 (O14842 whole entry): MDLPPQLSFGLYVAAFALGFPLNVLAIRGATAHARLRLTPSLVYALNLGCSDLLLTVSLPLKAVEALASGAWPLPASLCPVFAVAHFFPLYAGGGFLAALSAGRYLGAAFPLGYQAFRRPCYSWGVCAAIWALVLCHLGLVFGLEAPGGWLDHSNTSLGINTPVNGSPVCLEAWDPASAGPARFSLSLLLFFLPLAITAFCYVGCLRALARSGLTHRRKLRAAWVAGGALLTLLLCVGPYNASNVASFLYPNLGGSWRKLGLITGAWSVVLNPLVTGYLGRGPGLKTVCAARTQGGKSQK

| Structure (SMILES) | EC50 [1] [nM] | EC50 [2] [nM] | Emax ([3]; filed as agonist) [%] | Emax [3] [%] |
| --- | --- | --- | --- | --- |
| Cc1cc(=O)oc2cc(OCc3nc(N)nc(Nc4ccc(C(C)C)cc4)n3)ccc12 | 460 | 1200 | 75 | – |
| Cc1ccc(Nc2nc(N)nc(COc3cc(N4CCCC4=O)cc(C(F)(F)F)c3)n2)cc1Cl | 3190 | – | – | – |
| Cc1cc(OCc2nc(N)nc(NCCc3ccccc3OC(F)F)n2)cc(N2CCCC2=O)c1 | 108 | 178 | – | 30 |
| Cc1cc(OCc2nc(N)nc(NCCc3ccccc3Cl)n2)cc(N2CCCC2=O)c1 | 6 | 3 | – | 33 |
| Cc1cc(OCc2nc(N)nc(NCCc3ccccc3C(F)(F)F)n2)cc(N2CCCC2=O)c1 | 12 | 10 | – | 38 |
| Cc1ccc(Nc2nc(N)nc(COc3cccc(N4CCCC4=O)c3F)n2)cc1Cl | 14100 | – | – | – |
| Cc1cc(OCc2nc(N)nc(NCCc3ccc(C)cc3C)n2)cc(N2CCCC2=O)c1 | 71 | 93 | – | 37 |
| Cc1cc(OCc2nc(N)nc(NCCc3cccc(S(F)(F)(F)(F)F)c3)n2)cc(N2CCCC2=O)c1 | 32 | – | 95 | – |
| Cc1cc(OCc2nc(N)nc(NCCc3ccccc3F)n2)cc(N2CCCC2=O)c1 | 11 | – | – | – |
| Cc1cc(OCc2nc(N)nc(NCCc3cc(F)ccc3F)n2)cc(N2CCCC2=O)c1 | 16 | 5 | – | 36 |
| Cc1cccc(CCNc2nc(N)nc(COc3cc(C)cc(N4CCCC4=O)c3)n2)c1 | 7 | – | – | – |
| COc1cc(OCc2nc(N)nc(Nc3ccc(C)c(Cl)c3)n2)cc(N2CCCC2=O)c1 | 1800 | 600 | 43 | – |
| Cc1ccc(Nc2nc(N)nc(COc3cccc(N4CCCCC4=O)c3)n2)cc1Cl | 22400 | 16600 | 66 | – |
| Cc1ccc(Nc2nc(N)nc(COc3ccc4c(C(F)F)cc(=O)oc4c3)n2)cc1 | 3180 | 1570 | – | 27 |
| COc1ccc(CCNc2nc(N)nc(COc3cc(C)cc(N4CCCC4=O)c3)n2)cc1 | 1460 | 377 | – | 34 |
| Cc1cc(OCc2nc(N)nc(Nc3ccc(C)c(Cl)c3)n2)cc(N2CCCC2=O)c1 | 20 | 600 | 50 | – |
| Cc1cc(OCc2nc(N)nc(NCCc3ccc(C)c(Cl)c3)n2)cc(N2CCCC2=O)c1 | 7 | 8 | – | 32 |
| Cc1cc(=O)oc2cc(OCc3nc(N)nc(Nc4ccc(Cl)c(Cl)c4)n3)ccc12 | 780 | 360 | – | – |
| Cc1ccc(Nc2nc(N)nc(COc3cc(OC(F)(F)F)cc(N4CCCC4=O)c3)n2)cc1Cl | – | 2190 | – | 38 |
| COc1ccc(F)cc1CCNc1nc(N)nc(COc2cc(C)cc(N3CCCC3=O)c2)n1 | 469 | 134 | – | 30 |
| COc1ccc(OCc2nc(N)nc(Nc3ccc(C)c(Cl)c3)n2)cc1N1CCCC1=O | 20200 | 31400 | 53 | – |
| Cc1ccc(Nc2nc(N)nc(COc3cccc(N4CCCC4=O)c3C)n2)cc1Cl | 11100 | 14400 | 46 | – |
| Cc1cc(OCc2nc(N)nc(NCCc3cccc(C#N)c3)n2)cc(N2CCCC2=O)c1 | 831 | 552 | – | 17 |
| COc1ccc(Cl)cc1CCNc1nc(N)nc(COc2cc(C)cc(N3CCCC3=O)c2)n1 | 54 | 53 | – | 29 |
| Cc1ccc(Nc2nc(N)nc(COc3ccc(Cl)c(N4CCCC4=O)c3)n2)cc1Cl | 2450 | 3030 | 42 | – |
| COc1ccccc1CCNc1nc(N)nc(COc2cc(C)cc(N3CCCC3=O)c2)n1 | 34 | 14 | – | 23 |
| Cc1cc(OCc2nc(N)nc(NCCc3ccc(Cl)cc3Cl)n2)cc(N2CCCC2=O)c1 | 44 | 25 | – | 18 |
| Cc1ccc(Nc2nc(N)nc(COc3cc(C#N)cc(N4CCCC4=O)c3)n2)cc1Cl | 4170 | 14300 | – | 26 |

| Structure (SMILES) | EC50 [1] [nM] | EC50 [2] [nM] | Emax ([3]; filed as agonist) [%] | Emax [3] [%] |
| --- | --- | --- | --- | --- |
| Cc1cc(OCc2nc(N)nc(NCCc3cccc(C(F)(F)F)c3)n2)cc(N2CCCC2=O)c1 | 12 | 10 | – | 35 |
| Cc1cc(OCc2nc(N)nc(NCCc3cccc(Cl)c3Cl)n2)cc(N2CCCC2=O)c1 | 3 | 9 | – | 31 |
| Cc1cc(=O)oc2cc(OCc3nc(N)nc(Nc4ccc5c(c4)COC5)n3)ccc12 | 1330 | – | – | – |
| Cc1cc(OCc2nc(N)nc(NCCc3ccccc3)n2)cc(N2CCCC2=O)c1 | 25 | 33 | – | 38 |
| Cc1ccc(Nc2nc(N)nc(COc3cc(F)cc(N4CCCC4=O)c3)n2)cc1Cl | 1800 | 1200 | 47 | – |
| Cc1cc(=O)oc2cc(OCc3nc(N)nc(Nc4cccc(Cl)c4)n3)ccc12 | 1110 | – | – | – |
| Cc1cc(OCc2nc(N)nc(NCCc3c(F)cccc3F)n2)cc(N2CCCC2=O)c1 | 3 | 9 | 46 | – |
| Cc1ccc(Nc2nc(N)nc(COc3ccc4c(C)cc(=O)oc4c3)n2)cc1C | 210 | – | – | – |
| Cc1ccc(Nc2nc(N)nc(COc3ccc4c(C)cc(=O)oc4c3)n2)cc1 | 1790 | 1210 | – | 39 |
| Cc1cc(Nc2nc(N)nc(COc3ccc4c(C)cc(=O)oc4c3)n2)ccc1Cl | 240 | 600 | 48 | – |
| Cc1ccc(Nc2nc(N)nc(COc3cccc(N4CCCS4(=O)=O)c3)n2)cc1Cl | 9700 | – | – | – |
| Cc1cc(=O)oc2cc(OCc3nc(N)nc(Nc4ccc(Cl)cc4)n3)ccc12 | 32500 | – | – | – |
| Cc1ccc(Nc2nc(N)nc(COc3cc(N4CCCC4=O)ccc3F)n2)cc1Cl | 33100 | 13800 | – | 27 |
| Cc1cc(=O)oc2cc(OCc3nc(N)nc(NCc4ccc(F)cc4)n3)ccc12 | 7820 | – | – | – |
| Cc1cc(OCc2nc(N)nc(NCCc3ccccc3OC(F)(F)F)n2)cc(N2CCCC2=O)c1 | 20 | 37 | – | 29 |
| Cc1cc(=O)oc2cc(OCc3nc(N)nc(Nc4ccc(F)cc4)n3)ccc12 | 18300 | – | – | – |
| Cc1ccc(Nc2nc(N)nc(COc3ccc4c5c(c(=O)oc4c3)CCC5)n2)cc1 | 2220 | – | – | – |
| CCc1ccc(Nc2nc(N)nc(COc3ccc4c(C)cc(=O)oc4c3)n2)cc1Cl | 160 | 560 | 48 | – |
| COc1cccc(CCNc2nc(N)nc(COc3cc(C)cc(N4CCCC4=O)c3)n2)c1 | 12 | 14 | 46 | – |
| CCc1cc(=O)oc2cc(OCc3nc(N)nc(Nc4ccc(C)cc4)n3)ccc12 | 2640 | 1320 | – | 37 |
| Cc1cc(OCc2nc(N)nc(NCC(c3c(F)cccc3F)N(C)C)n2)cc(N2CCCC2=O)c1 (centres undefined) | 7430 | – | – | – |
| CCCc1cc(=O)oc2cc(OCc3nc(N)nc(Nc4ccc(C)cc4)n3)ccc12 | 2900 | – | – | – |
| Cc1ccc(Nc2nc(N)nc(COc3cc(N4CCCC4=O)cc(C(C)(C)C)c3)n2)cc1Cl | – | 640 | – | – |
| Cc1cc(OCc2nc(N)nc(NCC3(c4cccc(Cl)c4)CC3)n2)cc(N2CCCC2=O)c1 | 48 | – | – | – |
| Cc1cc(OCc2nc(N)nc(NCCc3ccc(Cl)cc3)n2)cc(N2CCCC2=O)c1 | 193 | – | – | – |
| Cc1cc(=O)oc2cc(OCc3nc(N)nc(Nc4ccc5ccccc5c4)n3)ccc12 | 700 | – | – | – |
| Cc1cc(=O)oc2cc(OCc3nc(N)nc(Nc4ccc(C5CC5)cc4)n3)ccc12 | 700 | – | – | – |

— ChEMBL document CHEMBL5236638, “Optimization of First-in-Class Dual-Acting FFAR1/FFAR4 Allosteric Modulators with Novel Mode of Action” (ACS Med Chem Lett, 2022)
